Assay results as given in PMC5218480 (PLoS ONE, 2017).

Test system: MV-4-11 cells
Assay: Gene expression microarray analysis (Affymetrix PrimeView) and GSEA
Assay type: cell-based, human
Parameters: RFU PODN (11730768_x_at) / Fold change /veh PODN (11730768_x_at) / RFU LINC00158 (11744669_a_at) / Fold change /veh LINC00158 (11744669_a_at) / RFU DUSP10 (11751237_a_at) / Fold change /veh DUSP10 (11751237_a_at) / RFU ID3 (11757404_x_at) / Fold change /veh ID3 (11757404_x_at) / RFU PLEKHG5 (11737974_s_at) / Fold change /veh PLEKHG5 (11737974_s_at) / RFU LRRC4B (11730491_at) / Fold change /veh LRRC4B (11730491_at) / RFU GIMAP4 (11747438_a_at) / Fold change /veh GIMAP4 (11747438_a_at) / RFU KRT8 (11758183_x_at) / Fold change /veh KRT8 (11758183_x_at) / RFU CNN1 (11734310_a_at) / Fold change /veh CNN1 (11734310_a_at) / RFU VPS37D (11726825_at) / Fold change /veh VPS37D (11726825_at) / RFU C10orf10 (11716522_x_at) / Fold change /veh C10orf10 (11716522_x_at) / RFU KIR2DL2 /// KIR2DL4 /// KIR2DL5A /// KIR2DL5B /// KIR2DS1 /// KIR2DS2 /// KIR2DS3 /// KIR2DS4 /// KIR3DL3 /// KIR3DL3 /// KIR3DS1 (11738374_at) / Fold change /veh KIR2DL2 /// KIR2DL4 /// KIR2DL5A /// KIR2DL5B /// KIR2DS1 /// KIR2DS2 /// KIR2DS3 /// KIR2DS4 /// KIR3DL3 /// KIR3DL3 /// KIR3DS1 (11738374_at) / RFU C1QL1 (11718748_at) / Fold change /veh C1QL1 (11718748_at) / RFU TMPRSS4 (11747572_a_at) / Fold change /veh TMPRSS4 (11747572_a_at) / RFU HAMP (11756126_x_at) / Fold change /veh HAMP (11756126_x_at) / RFU RNFT2 (11725882_a_at) / Fold change /veh RNFT2 (11725882_a_at) / RFU NR4A2 (11747474_a_at) / Fold change /veh NR4A2 (11747474_a_at) / RFU ABCC12 (11746883_a_at) / Fold change /veh ABCC12 (11746883_a_at) / RFU TMEM136 (11760407_x_at) / Fold change /veh TMEM136 (11760407_x_at) / RFU CLDN22 /// WWC2 (11732394_at) / Fold change /veh CLDN22 /// WWC2 (11732394_at) / RFU HLA-DPB1 (11760878_x_at) / Fold change /veh HLA-DPB1 (11760878_x_at) / RFU SPINT1 (11716480_a_at) / Fold change /veh SPINT1 (11716480_a_at) / RFU GAP43 (11754022_s_at) / Fold change /veh GAP43 (11754022_s_at) / RFU A4GNT (11735810_at) / Fold change /veh A4GNT (11735810_at) / RFU PRB3 (11715151_x_at) / Fold change /veh PRB3 (11715151_x_at) / RFU TUBB4B (11761932_at) / Fold change /veh TUBB4B (11761932_at) / RFU CAPN14 (11732068_a_at) / Fold change /veh CAPN14 (11732068_a_at) / RFU TMCC2 (11721928_a_at) / Fold change /veh TMCC2 (11721928_a_at) / RFU IRGQ (11745062_a_at) / Fold change /veh IRGQ (11745062_a_at) / RFU FAM174B (11720279_a_at) / Fold change /veh FAM174B (11720279_a_at) / RFU TMPRSS4 (11748680_a_at) / Fold change /veh TMPRSS4 (11748680_a_at) / RFU FAM212B (11763350_a_at) / Fold change /veh FAM212B (11763350_a_at) / RFU PLEKHG5 (11743358_a_at) / Fold change /veh PLEKHG5 (11743358_a_at) / RFU ZSCAN30 (11745921_a_at) / Fold change /veh ZSCAN30 (11745921_a_at) / RFU CMKLR1 (11741424_a_at) / Fold change /veh CMKLR1 (11741424_a_at) / RFU LOC101060620 /// MAPK8IP1 (11723275_at) / Fold change /veh LOC101060620 /// MAPK8IP1 (11723275_at) / RFU SPTSSB (11747773_x_at) / Fold change /veh SPTSSB (11747773_x_at) / RFU PRSS12 (11739890_at) / Fold change /veh PRSS12 (11739890_at) / RFU BIN1 (11741810_x_at) / Fold change /veh BIN1 (11741810_x_at) / RFU WNT11 (11732464_a_at) / Fold change /veh WNT11 (11732464_a_at) / RFU C10orf10 (11716521_a_at) / Fold change /veh C10orf10 (11716521_a_at) / RFU C5orf56 (11738089_at) / Fold change /veh C5orf56 (11738089_at) / RFU CYB561 (11721691_x_at) / Fold change /veh CYB561 (11721691_x_at) / RFU ANKRD19P (11752326_a_at) / Fold change /veh ANKRD19P (11752326_a_at) / RFU OR2T12 /// OR2T33 /// OR2T8 (11738714_s_at) / Fold change /veh OR2T12 /// OR2T33 /// OR2T8 (11738714_s_at) / RFU VCAN (11748164_a_at) / Fold change /veh VCAN (11748164_a_at) / RFU JSRP1 (11732532_at) / Fold change /veh JSRP1 (11732532_at) / RFU KRTAP10-11 (11738290_x_at) / Fold change /veh KRTAP10-11 (11738290_x_at) / RFU MYO3A (11730013_a_at) / Fold change /veh MYO3A (11730013_a_at) / RFU EBF3 (11725865_a_at) / Fold change /veh EBF3 (11725865_a_at) / RFU CAMK2N1 (11719241_x_at) / Fold change /veh CAMK2N1 (11719241_x_at) / RFU C5orf56 (11738088_a_at) / Fold change /veh C5orf56 (11738088_a_at) / RFU OLFML3 (11715873_a_at) / Fold change /veh OLFML3 (11715873_a_at) / RFU LOC100653217 /// NTM (11731650_a_at) / Fold change /veh LOC100653217 /// NTM (11731650_a_at) / RFU MAPK11 (11762145_a_at) / Fold change /veh MAPK11 (11762145_a_at) / RFU FIZ1 (11724087_x_at) / Fold change /veh FIZ1 (11724087_x_at) / RFU OASL (11726364_x_at) / Fold change /veh OASL (11726364_x_at) / RFU SOX15 (11748057_x_at) / Fold change /veh SOX15 (11748057_x_at) / RFU CD79A (11719716_a_at) / Fold change /veh CD79A (11719716_a_at) / RFU HIST1H1D (11736915_at) / Fold change /veh HIST1H1D (11736915_at) / RFU CASKIN2 (11723855_a_at) / Fold change /veh CASKIN2 (11723855_a_at) / RFU LOC730098 (11760151_x_at) / Fold change /veh LOC730098 (11760151_x_at) / RFU OR4N2 (11742367_at) / Fold change /veh OR4N2 (11742367_at) / RFU PRRT2 (11749266_a_at) / Fold change /veh PRRT2 (11749266_a_at) / RFU SNX32 (11753110_a_at) / Fold change /veh SNX32 (11753110_a_at) / RFU CDHR5 (11726645_a_at) / Fold change /veh CDHR5 (11726645_a_at) / RFU RCAN1 (11760418_a_at) / Fold change /veh RCAN1 (11760418_a_at) / RFU FAM167A (11723789_a_at) / Fold change /veh FAM167A (11723789_a_at) / RFU FAM26E (11764081_at) / Fold change /veh FAM26E (11764081_at) / RFU ISYNA1 (11749810_s_at) / Fold change /veh ISYNA1 (11749810_s_at) / RFU ACY1 (11761880_at) / Fold change /veh ACY1 (11761880_at) / RFU 11764098_at / Fold change /veh 11764098_at / RFU SAMD14 (11745864_x_at) / Fold change /veh SAMD14 (11745864_x_at) / RFU NPB (11741838_a_at) / Fold change /veh NPB (11741838_a_at) / RFU TMPRSS6 (11731388_a_at) / Fold change /veh TMPRSS6 (11731388_a_at) / RFU KRTAP10-2 (11738614_at) / Fold change /veh KRTAP10-2 (11738614_at) / RFU ARHGAP8 /// PRR5-ARHGAP8 (11727945_x_at) / Fold change /veh ARHGAP8 /// PRR5-ARHGAP8 (11727945_x_at) / RFU KRTAP5-7 /// NADSYN1 (11734609_at) / Fold change /veh KRTAP5-7 /// NADSYN1 (11734609_at) / RFU RASL12 (11751679_a_at) / Fold change /veh RASL12 (11751679_a_at) / RFU CDKN2B (11736163_a_at) / Fold change /veh CDKN2B (11736163_a_at) / RFU PRF1 (11729649_at) / Fold change /veh PRF1 (11729649_at) / RFU, ZNF638 /// ZNF638-IT1 / Fold change vs veh, ZNF638 /// ZNF638-IT1 / RFU, PANK3 / Fold change vs veh, PANK3 / RFU, SH3YL1 / Fold change vs veh, SH3YL1 / RFU, ZEB2 / Fold change vs veh, ZEB2 / RFU, NRIP1 / Fold change vs veh, NRIP1 / RFU, PTTG1IP / Fold change vs veh, PTTG1IP / RFU, CAPN2 / Fold change vs veh, CAPN2 / RFU, MED14 / Fold change vs veh, MED14 / RFU, SNORA58 / Fold change vs veh, SNORA58 / RFU, C1orf63 / Fold change vs veh, C1orf63 / RFU, LRRFIP1 / Fold change vs veh, LRRFIP1 / RFU, NDUFAF7 / Fold change vs veh, NDUFAF7 / RFU, SLC12A2 / Fold change vs veh, SLC12A2 / RFU, IBTK / Fold change vs veh, IBTK / RFU, ESF1 / Fold change vs veh, ESF1 / Fold change vs veh, TMEM50B / RFU, TAOK1 / Fold change vs veh, TAOK1 / RFU, ACBD3 / Fold change vs veh, ACBD3 / RFU, TMA16 / Fold change vs veh, TMA16 / RFU, RWDD3 / Fold change vs veh, RWDD3 / RFU, BCAT1 / Fold change vs veh, BCAT1 / RFU, EDEM3 / Fold change vs veh, EDEM3 / RFU, TMEM33 / Fold change vs veh, TMEM33 / RFU, WDR75 / Fold change vs veh, WDR75 / RFU, AHCTF1 / Fold change vs veh, AHCTF1 / RFU, TFRC / Fold change vs veh, TFRC / RFU, ZDHHC17 / Fold change vs veh, ZDHHC17 / RFU, NOM1 / Fold change vs veh, NOM1 / RFU, ARL8B / Fold change vs veh, ARL8B / RFU, ZBTB11 / Fold change vs veh, ZBTB11 / RFU, TAMM41 / Fold change vs veh, TAMM41 / RFU, KIAA1704 /// LOC100996395 / Fold change vs veh, KIAA1704 /// LOC100996395 / RFU, ING1 / Fold change vs veh, ING1 / RFU, TRMT61B / Fold change vs veh, TRMT61B / RFU, FUBP3 / Fold change vs veh, FUBP3 / RFU, TP53 / Fold change vs veh, TP53 / RFU, TNKS2 / Fold change vs veh, TNKS2 / RFU, ZFP14 / Fold change vs veh, ZFP14 / RFU, ACTR2 / Fold change vs veh, ACTR2 / RFU, PPP3R1 / Fold change vs veh, PPP3R1 / RFU, PIK3R1 / Fold change vs veh, PIK3R1 / RFU, HNRNPA1 / Fold change vs veh, HNRNPA1 / RFU, RNF170 / Fold change vs veh, RNF170 / RFU, ZNF28 / Fold change vs veh, ZNF28 / RFU, RNGTT / Fold change vs veh, RNGTT / RFU, OGT / Fold change vs veh, OGT / RFU, BRD1 / Fold change vs veh, BRD1 / RFU, MARS / Fold change vs veh, MARS / RFU, ZNF655 / Fold change vs veh, ZNF655 / RFU, FAHD1 / Fold change vs veh, FAHD1 / RFU, BDP1 / Fold change vs veh, BDP1 / RFU, LRRCC1 / Fold change vs veh, LRRCC1 / RFU, ARID1A / Fold change vs veh, ARID1A / RFU, ZNF146 / Fold change vs veh, ZNF146 / RFU, ZNF330 / Fold change vs veh, ZNF330 / RFU, GPN3 / Fold change vs veh, GPN3 / RFU, C9orf123 / Fold change vs veh, C9orf123 / RFU, N4BP2L2 / Fold change vs veh, N4BP2L2 / RFU, ARFIP1 / Fold change vs veh, ARFIP1 / RFU, FAM179B / Fold change vs veh, FAM179B / RFU, BCL10 / Fold change vs veh, BCL10 / RFU, UHRF1BP1L / Fold change vs veh, UHRF1BP1L / RFU, BET1 / Fold change vs veh, BET1 / RFU, CNOT2 / Fold change vs veh, CNOT2 / RFU, ZNF268 / Fold change vs veh, ZNF268 / Fold change vs veh, ZNF507 / RFU, DGCR2 / Fold change vs veh, DGCR2 / RFU, WDSUB1 / Fold change vs veh, WDSUB1 / Fold change vs veh, HSP90B1 /// MIR3652 / RFU, ADSS / Fold change vs veh, ADSS / RFU, GK / Fold change vs veh, GK / RFU, ZNF148 / Fold change vs veh, ZNF148 / RFU, TAF9 / Fold change vs veh, TAF9 / RFU, SLC1A5 / Fold change vs veh, SLC1A5 / RFU, SLMO2 / Fold change vs veh, SLMO2 / RFU, ABCC4 / Fold change vs veh, ABCC4 / RFU, LOC101060439 /// RAP1B / Fold change vs veh, LOC101060439 /// RAP1B / RFU, RFX7 / Fold change vs veh, RFX7 / RFU, GTPBP10 / Fold change vs veh, GTPBP10 / RFU, CNEP1R1 / Fold change vs veh, CNEP1R1 / RFU, BIVM-ERCC5 /// ERCC5 / Fold change vs veh, BIVM-ERCC5 /// ERCC5 / RFU, ILF3 / Fold change vs veh, ILF3 / RFU 11762660_at / Fold change /veh 11762660_at / RFU VCAN (11757783_s_at) / Fold change /veh VCAN (11757783_s_at) / RFU DDX43 (11728927_at) / Fold change /veh DDX43 (11728927_at) / RFU KRT8 (11758188_x_at) / Fold change /veh KRT8 (11758188_x_at) / RFU NKD1 (11759106_at) / Fold change /veh NKD1 (11759106_at) / RFU SRD5A1 (11742802_a_at) / Fold change /veh SRD5A1 (11742802_a_at) / RFU TPSAB1 /// TPSB2 (11721975_s_at) / Fold change /veh TPSAB1 /// TPSB2 (11721975_s_at) / RFU GSTM3 (11746129_a_at) / Fold change /veh GSTM3 (11746129_a_at) / RFU IL23R (11737362_x_at) / Fold change /veh IL23R (11737362_x_at) / RFU TMEM51 (11727254_a_at) / Fold change /veh TMEM51 (11727254_a_at) / RFU PIWIL2 (11732686_x_at) / Fold change /veh PIWIL2 (11732686_x_at) / RFU ORM1 (11744905_x_at) / Fold change /veh ORM1 (11744905_x_at) / RFU CCDC152 (11743942_at) / Fold change /veh CCDC152 (11743942_at) / RFU ECM1 (11717891_a_at) / Fold change /veh ECM1 (11717891_a_at) / RFU IL23R (11748794_a_at) / Fold change /veh IL23R (11748794_a_at) / RFU TNFAIP8L3 (11732012_x_at) / Fold change /veh TNFAIP8L3 (11732012_x_at) / RFU MBOAT4 (11741988_at) / Fold change /veh MBOAT4 (11741988_at) / RFU 11764193_at / Fold change /veh 11764193_at / RFU TMEM53 (11763286_at) / Fold change /veh TMEM53 (11763286_at) / RFU MAGEB2 (11727129_at) / Fold change /veh MAGEB2 (11727129_at) / RFU TMEM200A (11744735_a_at) / Fold change /veh TMEM200A (11744735_a_at) / RFU CCDC152 (11751479_a_at) / Fold change /veh CCDC152 (11751479_a_at) / RFU FAM211A (11726209_a_at) / Fold change /veh FAM211A (11726209_a_at) / RFU RGS16 (11746705_a_at) / Fold change /veh RGS16 (11746705_a_at) / RFU VCAN (11755009_s_at) / Fold change /veh VCAN (11755009_s_at) / RFU RHOB (11743442_s_at) / Fold change /veh RHOB (11743442_s_at) / RFU RGS16 (11720943_a_at) / Fold change /veh RGS16 (11720943_a_at) / RFU RGS16 (11720944_at) / Fold change /veh RGS16 (11720944_at) / RFU, VPS4B / Fold change vs veh, VPS4B / RFU, CREB1 / Fold change vs veh, CREB1 / RFU, DNAJC13 / Fold change vs veh, DNAJC13 / RFU, GNAQ / Fold change vs veh, GNAQ / RFU, CDK5R1 / Fold change vs veh, CDK5R1 / RFU, ZRANB3 / Fold change vs veh, ZRANB3 / RFU, CUL4A / Fold change vs veh, CUL4A / RFU, CCNY / Fold change vs veh, CCNY / RFU, UFL1 / Fold change vs veh, UFL1 / RFU, COG3 / Fold change vs veh, COG3 / RFU, DIAPH2 / Fold change vs veh, DIAPH2 / RFU, SKA2 / Fold change vs veh, SKA2 / RFU, AFF3 / Fold change vs veh, AFF3 / RFU, LMF1 / Fold change vs veh, LMF1 / RFU, IPO11 / Fold change vs veh, IPO11 / RFU, DFFB / Fold change vs veh, DFFB / RFU, FOXP1 / Fold change vs veh, FOXP1 / RFU, CARD8 / Fold change vs veh, CARD8 / RFU, STRN3 / Fold change vs veh, STRN3 / RFU, ADK / Fold change vs veh, ADK / RFU, RASSF2 / Fold change vs veh, RASSF2 / RFU, WIPF1 / Fold change vs veh, WIPF1 / RFU, LARP1B / Fold change vs veh, LARP1B / RFU, RASA1 / Fold change vs veh, RASA1 / RFU, RB1 / Fold change vs veh, RB1 / RFU, PPFIA1 / Fold change vs veh, PPFIA1 / RFU, MAT2A / Fold change vs veh, MAT2A / RFU, CCT5 / Fold change vs veh, CCT5 / RFU, WDR92 / Fold change vs veh, WDR92 / RFU, CUX1 / Fold change vs veh, CUX1 / RFU, TTC7A / Fold change vs veh, TTC7A / RFU, TMEM135 / Fold change vs veh, TMEM135 / RFU, DEPTOR / Fold change vs veh, DEPTOR / RFU, CPM / Fold change vs veh, CPM / RFU, DNAJB6 / Fold change vs veh, DNAJB6 / RFU, CACNA2D3 / Fold change vs veh, CACNA2D3 / RFU, DTX4 / Fold change vs veh, DTX4 / RFU, TFCP2 / Fold change vs veh, TFCP2 / RFU, GMCL1 /// GMCL1P1 / Fold change vs veh, GMCL1 /// GMCL1P1 / RFU, AEBP2 / Fold change vs veh, AEBP2 / RFU, SNHG1 /// SNORD22 /// SNORD25 /// SNORD26 /// SNORD27 /// SNORD28 /// SNORD29 /// SNORD31 / Fold change vs veh, SNHG1 /// SNORD22 /// SNORD25 /// SNORD26 /// SNORD27 /// SNORD28 /// SNORD29 /// SNORD31 / Fold change (Aza/veh), C12orf56 (ProbeSet 11735607_a_at) / Fold change (ACY-1035/veh), C12orf56 (ProbeSet 11735607_a_at) / Fold change (Aza/veh), FGFR1OP (ProbeSet 11751329_s_at) / Fold change (ACY-1035/veh), FGFR1OP (ProbeSet 11751329_s_at) / Fold change (Aza/veh), VPS36 (ProbeSet 11739960_a_at) / Fold change (ACY-1035/veh), VPS36 (ProbeSet 11739960_a_at) / RFU SYPL1 (11715823_x_at) / Fold change /veh SYPL1 (11715823_x_at) / RFU IGFBP7 (11715501_s_at) / Fold change /veh IGFBP7 (11715501_s_at) / RFU REEP3 (11722064_at) / Fold change /veh REEP3 (11722064_at) / RFU IGLL1 (11728026_x_at) / Fold change /veh IGLL1 (11728026_x_at): dose or concentration left out as unconfirmed
Conditions: MV-4-11 cells, 48 hours

Compound: Nc1ncn([C@@H]2O[C@H](CO)[C@@H](O)[C@H]2O)c(=O)n1 [azacitidine]
- RFU IRGQ (11745062_a_at): 24.06 RFU
